{"source": "patent US20240091242A1", "about": "“LIPIDS THAT REDUCE LUNG DAMAGE, IMPROVE PULMONARY FUNCTION AND DECREASE PRO-INFLAMMATORY CYTOKINES” (Signpath Pharma, Inc., priority 2021, published 2024)", "test_system": "murine LPS ARDS model", "assay": "BALF protein content and cell counts, murine LPS ARDS model", "assay_type": "in vivo, mouse", "protocol": "In the ARDS group, mice received Escherichia coli O111:B4 lipopolysaccharide (50 μg in 0.05 mL saline, i.t.), while, in the control group, the animals received an instillation of saline (0.05 mL, i.t.). For intratracheal instillation, mice were slightly anesthetized with isoflurane.\nThe lipid SPPCT-800 was dissolved in water (low dose—2 mg/ml; high dose—20 mg/ml). For the 24-hour study, two treatment approaches were used. Mice received a single dose of SPPCT-800 (200 mg/kg, per gavage) as prevention (30 minutes before the LPS instillation), or as a single dose of either 20 mg/kg or 200 mg/kg as therapy (3-hour after the LPS instillation). For the 72-hour study, mice received a total of 8 treatments of SPPCT-800 (200 mg/kg) starting at 3-hour after the LPS instillation. Disease progression in mice was assessed by the evaluation of pulmonary functions, blood oxygen saturation, and body weight change. On the terminal day of each study (24 hours or 72 hours), measurement of cytokine levels in the plasma and BALF, and histopathology evaluations were done.\nDifferential Cell Counts in BALF. The left lung was clamped while 0.9 mL of cold PBS 1×, Protease Inhibitor 1× (SigmaFast®) solution (3×300 μL) was injected so bronchoalveolar lavage fluid (BALF) from the right lobe of the lungs could be collected. The protein assay was performed according to the manufacturer's instruction BCA Protein Assay (Pierce™-#23227). Briefly, a dilution factor of 5 was used (1 part of BALF: 4 part of PBS 1×). 10 μL, of the diluted sample was added into the microplate wells. 200 μL of the working reagent was added into each well. The plate was covered, incubated at 37° C. for 30 minutes. After a cool-down period, the absorbance at 562 nm was rapidly measured using a monochromatic spectrophotometer (SpectraMAX ® plus—Molecular Devices). The total BALF protein content was reported by multiplying the protein concentration by the dilution factor, and then multiplying by the total of BALF volume collected.\nStatistical Analysis. Results are expressed as means±SEM. Comparisons were made on normally distributed data using ANOVA, followed by a Fisher post hoc test to assess the difference between LPS+vehicle group with GraphPad Prism Software version 8.0 (San Diego, CA, USA). Differences were considered statistically significant when P values were less than 0.05. (* Shown difference versus Sham animals and # shown difference versus LPS+Vehicle group. * Means P<0.05, ** P<0.01, *** P<0.001 while # means P<0.05, ##P<0.01 and ###P<0.001)."}
{"compound": "CCCCCCCCCCCCCC(=O)OCC(COP(=O)([O-])OCC(COC(=O)CCC)OC(=O)CCC)OC(=O)CCCCCCCCCCCCC.CCCCCCCCCCCCCC(=O)OCC(COP(=O)([O-])OCC(COC(=O)CCC)OC(=O)CCC)OC(=O)CCCCCCCCCCCCC.[Mg+2]", "note": "(stereo not shown) [SPPCT-800]", "values": [{"measurement": "BALF protein content", "setting": "24 hours after LPS, single dose given as a preventive, P<0.05", "value": "significant reduction"}, {"measurement": "BALF protein levels", "setting": "at 72 hours, multidose treatment", "value": "major reductions"}, {"measurement": "BALF neutrophil counts", "setting": "at 72 hours, multidose treatment, P=0.1493, not statistically significant", "value": "reductions"}, {"measurement": "BALF total cell count", "setting": "at 72 hours, multidose treatment, P=0.1714, not statistically significant", "value": "reductions"}]}
